For this experiment, the system named is metastatic renal cell carcinoma. Kind of experiment: Treatment of patients with metastatic renal cell carcinoma by 1 hour infusion of the liposomal composition. The format is in vivo, man. The settings on record: a patient with renal cell carcinoma with multiple small pulmonary metastases. The protocol: 12 patients diagnosed as having metastatic renal cell carcinoma were given the liposomal composition in accordance with Example 2 at various dosage levels of the active ingredient by 1 hour infusion in 50 ml of isotonic saline through a safety filter twice a week for a total of 8 doses.

For the compound `CCCCCCCCCCCCCCCC(=O)OCC(COP(=O)([O-])OCCNC(=O)C(C)NC(=O)CCC(NC(=O)C(C)NC(=O)C(C)OC1C(O)C(CO)OC(O)C1NC(C)=O)C(N)=O)OC(=O)CCCCCCCCCCCCCCC.[Na+]` [N-acetylmuramyl-L-alanyl-D-isoglutaminyl-L-alanine-2-(1,2-dipalmitoyl-sn-glycero-3-hydroxyphosphoryloxy)ethylamide monosodium salt], the size of lesions entry was “reduce the size of lesions”.

Values taken from US4994440A, “Method for the treatment of renal cell carcinoma” (priority 1989, dated 1991).
